Assays:
[1] = lipophilicity (logD7.4), shake-flask method; assay type: physicochemical; conditions: n-octanol/PBS (1:1, v/v), n-octanol / PBS pH 7.4, ambient temperature, fourfold determination
Method: To estimate the lipophilicity of [^18F]TA3 and [^18F]TA4, the distribution coefficients were determined by partitioning between n-octanol and phosphate buffered saline (PBS, pH 7.4) at ambient temperature using the conventional shake-flask method. […] In vitro stability of each radioligand was investigated in phosphate buffered saline (PBS, pH 7.4), n-octanol and pig plasma after 60 min incubation at 37 °C.
The lipophilicity of [^18F]TA3 or [^18F]TA4 was determined by partitioning between n-octanol and phosphate buffered saline (PBS, pH 7.4) at ambient temperature using the conventional shake-flask method. An aliquot of 10 µL of the formulated solutions of each [^18F]TA3 or [^18F]TA4 with approximately 1 MBq of the radioligand was added to a tube containing 6 mL of the n-octanol/PBS-mixture (1:1, v/v, fourfold determination). The tubes were shaken for 20 min using a mechanical shaker (HS250 basic, IKA Labortechnik GmbH & Co. KG, Staufen, Germany) followed by centrifugation (5000 rpm for 5 min) and separation of the phases. Aliquots of each 1 mL were taken from the organic and the aqueous phase and activity was measured using an automated gamma counter (1480 WIZARD, Fa. Perkin Elmer, Waltham, MA, USA). The distribution coefficient (D) was calculated as [activity (cpm/mL) in n-octanol]/[activity (cpm/mL) in PBS, pH 7.4] specified as the decade logarithm (logD7.4).

PDE2A = biological target: T1, PDE2A (Rattus norvegicus, UniProt Q01062); assay: in vitro autoradiography on sagittal rat brain sections; assay type: binding; conditions: sagittal rat brain slices, ~1 MBq/mL, 60 min incubation
T1 construct: from tissue; host or cells: sagittal brain sections of female SPRD rats
T1 sequence (Q01062 1-928): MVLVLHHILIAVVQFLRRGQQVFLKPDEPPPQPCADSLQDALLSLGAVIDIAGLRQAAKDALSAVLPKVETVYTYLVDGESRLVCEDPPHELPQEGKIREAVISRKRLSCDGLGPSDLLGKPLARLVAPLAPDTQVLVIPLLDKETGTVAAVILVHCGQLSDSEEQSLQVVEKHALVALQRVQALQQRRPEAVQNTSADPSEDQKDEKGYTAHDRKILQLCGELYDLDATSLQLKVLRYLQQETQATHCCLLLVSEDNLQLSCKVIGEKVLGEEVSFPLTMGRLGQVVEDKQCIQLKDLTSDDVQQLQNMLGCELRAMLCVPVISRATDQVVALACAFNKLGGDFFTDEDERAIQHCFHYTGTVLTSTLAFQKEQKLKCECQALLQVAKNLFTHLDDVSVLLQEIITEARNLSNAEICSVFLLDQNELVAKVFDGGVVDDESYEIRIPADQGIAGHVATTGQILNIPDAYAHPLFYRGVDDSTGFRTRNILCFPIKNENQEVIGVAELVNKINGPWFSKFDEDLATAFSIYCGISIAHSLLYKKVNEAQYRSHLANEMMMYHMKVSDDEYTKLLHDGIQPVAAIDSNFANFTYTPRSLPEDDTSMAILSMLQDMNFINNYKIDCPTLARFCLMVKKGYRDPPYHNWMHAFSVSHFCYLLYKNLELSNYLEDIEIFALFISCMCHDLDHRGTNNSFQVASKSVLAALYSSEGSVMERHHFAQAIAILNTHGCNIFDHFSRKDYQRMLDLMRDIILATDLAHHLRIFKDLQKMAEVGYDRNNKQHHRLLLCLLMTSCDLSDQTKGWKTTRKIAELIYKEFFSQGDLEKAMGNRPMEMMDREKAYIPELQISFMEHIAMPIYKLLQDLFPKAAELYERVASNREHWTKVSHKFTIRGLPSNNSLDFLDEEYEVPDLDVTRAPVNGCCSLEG
Method: In vitro autoradiographic studies were accomplished by incubating sagittal sections of rat brain with [^18F]TA3 or [^18F]TA4. […] The images shown in Figure 6 indicate region-specific accumulation of both radioligands [^18F]TA3 and [^18F]TA4, which is consistent with the distribution pattern of PDE2A protein in rat brain [9, 11]. Therefore, we assume that the novel radioligands might be appropriate for in vitro imaging of PDE2A.
Frozen sagittal brain sections obtained from female SPRD rats (10–12 weeks old) were thawed, dried in a stream of cold air, and preincubated for 20 min with incubation buffer (50 mM TRIS-HCl, pH 7.4, 120 mM NaCl, 5 mM KCl, 2 mM CaCl2, 5 mM MgCl2) at ambient temperature. Brain sections were incubated with ~1 MBq/mL of [^18F]TA3 or [^18F]TA4 in incubation buffer for 60 min at ambient temperature. Afterwards sections were washed twice with 50 mM TRIS-HCl (pH 7.4) for 2 min at 4 °C, dipped briefly in ice-cold deionized water, dried in a stream of cold air and exposed for 60 min to an ^18F-sensitive image plate that was analyzed afterwards using an image plate scanner (HD-CR 35; Duerr NDT GmbH, Bietigheim Bissingen, Germany).

[2] = in vivo metabolism in mice, conventional extraction and RP-HPLC; conditions: CD-1 mice, 30 min p.i., 150 MBq, extraction + RP-HPLC
Method: In vivo metabolism of [^18F]TA3 and [^18F]TA4 was investigated in plasma and brain samples obtained from CD-1 mice at 30 min post injection of 150 MBq of each radioligand. Analysis of the samples was performed after protein precipitation and twofold extraction using an organic solvent. […] In brain samples, 50% of total activity were represented by intact [^18F]TA3 (Figure 7; recovery: 65%).
The radioligands [^18F]TA3 or [^18F]TA4 (~60 MBq in 150 µL isotonic saline) were injected via the tail vein in female CD-1 mice (10–12 weeks old). Brain and blood samples were obtained at 30 min p.i., plasma separated by centrifugation (14,000× g, 1 min), and brain homogenized in ~1 mL isotonic saline on ice (10 strokes of a PTFE plunge at 1000 rpm in a borosilicate glass cylinder; Potter S Homogenizer, B. Braun Melsungen AG, Melsungen, Germany).
Twofold extractions of plasma (2 × 50 µL, 30 min p.i.) and brain samples (2 × 250 µL, 30 min p.i.) were performed using a mixture of ice-cold acetone/water (8:2, v/v; plasma or brain sample/organic solvent, 1:4, v/v). The samples were vortexed for 1 min, incubated on ice for 10 min (first extraction) or 5 min (second extraction) and centrifuged at 10,000 rpm for 5 min. Supernatants were collected and the precipitates were re-dissolved in ice-cold acetone/water for the second extraction. Aliquots from supernatants of each extraction step were taken. Activity thereof and of the precipitates was quantified using an automated gamma counter (1480 WIZARD, Fa. Perkin Elmer). The supernatants from both extractions were combined, concentrated under nitrogen stream at 70 °C and analyzed by radio-HPLC (system B).

With COc1ccc2nnc3c(C)nc(-c4cc(OCCCC[18F])ccc4F)n3c2n1 [[^18F]TA4] the logD [1] was 2.99 ± 0.15, the “regional binding in autoradiography” value (PDE2A) was “also binds to the olfactory tubercle, colliculi and partly to cerebellum” and the “intact radioligand in brain” value [2] was “No intact [^18F]TA4 was detectable”. For the same molecule, the “non-metabolized (intact) radioligand in plasma” value [2] was 6 % of total activity.

For COc1ccc2nnc3c(C)nc(-c4cc(OCCC[18F])ccc4F)n3c2n1 [[^18F]TA3], the logD [1] was 3.37 ± 0.14, the “regional binding in autoradiography” value (PDE2A) was “higher binding densities in cortex and striatum than in cerebellum” and the “intact radioligand in brain” value [2] was 50 % of total activity. The “non-metabolized (intact) radioligand in plasma” value [2] was 8 % of total activity.

From PMC6272448, “Synthesis, ^18F-Radiolabelling and Biological Characterization of Novel Fluoroalkylated Triazine Derivatives for in Vivo Imaging of Phosphodiesterase 2A in Brain via Positron Emission Tomography” (Molecules, 2015)
